Assay results: DBAASP
Converted amounts (≈) assume the structure as drawn. Each block holds one compound with its values, some of them ahead of it.

Legend:
Assay in all cases: ≥ marks a high value that may be exact or a test limit, other limits are often not marked, values filed in µg/mL are converted to µM
[1] = test system: Escherichia coli PCM 2057
[2] = test system: Staphylococcus aureus PCM 1944
[3] = test system: Bacillus subtilis ATCC 6633
[4] = test system: Candida albicans ATCC 36232
[5] = test system: Corynebacterium diphtheriae ATCC 8024
[6] = test system: Escherichia coli ATCC 2592
[7] = test system: Micrococcus luteus ATCC 9341
[8] = test system: Pseudomonas aeruginosa ATCC 9027
[9] = test system: Shigella flexneri ATCC 203
[10] = test system: Staphylococcus aureus ATCC 6538
Staphylococcus aureus = test system: Staphylococcus aureus
[11] = test system: Staphylococcus epidermidis ATCC 12228
Aerococcus viridans = test system: Aerococcus viridans
Alcaligenes faecalis = test system: Alcaligenes faecalis
Bacillus megaterium = test system: Bacillus megaterium
Bacillus subtilis QB935 = test system: Bacillus subtilis QB935
Bacillus thuringiensis = test system: Bacillus thuringiensis
[12] = test system: Enterobacter cloacae beta-12
Escherichia coli D22 = test system: Escherichia coli D22
Klebsiella pneumoniae = test system: Klebsiella pneumoniae
Listeria monocytogenes = test system: Listeria monocytogenes
Micrococcus luteus A270 = test system: Micrococcus luteus A270
Pediococcus acidilactici = test system: Pediococcus acidilactici
[13] = test system: Pseudomonas aeruginosa ATCC 82118
Salmonella typhimurium = test system: Salmonella typhimurium
Serratia marcescens Db11 = test system: Serratia marcescens Db11
[14] = test system: Staphylococcus saprophyticus

MIC [1]: ≥ 505 µM
MIC [2]: ≥ 505 µM
SMILES: CC[C@H](C)[C@@H]1NC(=O)[C@H](CO)NC(=O)[C@H](CCCCN)NC(=O)[C@@H](NC(=O)[C@H](CCCN=C(N)N)NC(=O)[C@H](Cc2ccccc2)NC(=O)[C@H](Cc2cnc[nH]2)NC(=O)[C@@H](NC(=O)[C@H](CCCCN)NC(=O)[C@H](Cc2ccccc2)NC(=O)[C@@H]2CCCN2C(=O)[C@@H](NC(=O)[C@H](CC(N)=O)NC(=O)[C@H](C)NC(=O)[C@H](C)N)[C@@H](C)CC)C(C)C)CSSC[C@@H](C(=O)O)NC(=O)[C@H](Cc2ccccc2)NC1=O [AANIPFKVHFRCKSIFC]

MIC [3]: ≥ 96.7 µM
MIC [4]: ≥ 96.7 µM
MIC [5]: ≥ 96.7 µM
MIC [6]: ≥ 96.7 µM
MIC [7]: ≥ 96.7 µM
MIC [8]: > 96.7 µM
MIC [9]: ≥ 96.7 µM
MIC [10]: > 96.7 µM
MIC (Staphylococcus aureus): > 96.7 µM
MIC [11]: > 96.7 µM
SMILES: CC(C)[C@H](NC(=O)[C@H](CS)NC(=O)[C@@H](NC(=O)[C@H](CCCN=C(N)N)NC(=O)[C@H](CCCCN)NC(=O)CNC(=O)[C@@H](N)CC(N)=O)C(C)C)C(=O)N[C@@H](CS)C(=O)N[C@@H](CCCN=C(N)N)C(N)=O [NGKRVCVCR]

MIC (Aerococcus viridans): 0.424 µM (≈ 2.01 µg/mL)
MIC (Alcaligenes faecalis): 5 µM (≈ 23.6 µg/mL)
MIC (Bacillus megaterium): 0.212 µM (≈ 1 µg/mL)
MIC (Bacillus subtilis QB935): 3.54 µM (≈ 16.7 µg/mL)
MIC (Bacillus thuringiensis): 5 µM (≈ 23.6 µg/mL)
MIC [12]: 5 µM (≈ 23.6 µg/mL)
MIC (Escherichia coli D22): 3.54 µM (≈ 16.7 µg/mL)
MIC (Klebsiella pneumoniae): > 5 µM
MIC (Listeria monocytogenes): 5 µM (≈ 23.6 µg/mL)
MIC (Micrococcus luteus A270): 0.212 µM (≈ 1 µg/mL)
MIC (Pediococcus acidilactici): 3.54 µM (≈ 16.7 µg/mL)
MIC [13]: 5 µM (≈ 23.6 µg/mL)
MIC (Salmonella typhimurium): 5 µM (≈ 23.6 µg/mL)
MIC (Serratia marcescens Db11): 5 µM (≈ 23.6 µg/mL)
MIC (Staphylococcus aureus): 0.88 µM (≈ 4.16 µg/mL)
MIC [14]: 1.77 µM (≈ 8.36 µg/mL)
SMILES: CC[C@H](C)[C@@H]1NC(=O)[C@H](CC(=O)O)NC(=O)[C@@H](NC(=O)[C@@H](NC(=O)[C@H](C)N)[C@@H](C)O)CSSC[C@@H]2NC(=O)[C@H](CCC(N)=O)NC(=O)CNC(=O)CNC(=O)[C@H](CCCCN)NC(=O)[C@H](Cc3ccc(O)cc3)NC(=O)CNC(=O)[C@H](CCCCN)NC(=O)[C@H]([C@@H](C)CC)NC(=O)[C@H](C(C)C)NC(=O)[C@@H]3CSSC[C@@H](C(=O)N[C@@H](CCCN=C(N)N)C(=O)N[C@@H](CCCN=C(N)N)C(=O)O)NC(=O)[C@H](Cc4cnc[nH]4)NC(=O)[C@H](CSSC[C@H](NC(=O)CNC(=O)[C@H](C)NC(=O)[C@H](Cc4cnc[nH]4)NC(=O)[C@H](CC(N)=O)NC(=O)[C@@H]4CCCN4C(=O)[C@H]([C@@H](C)O)NC(=O)[C@H](C(C)C)NC(=O)[C@H](Cc4c[nH]c5ccccc45)NC(=O)[C@H](CCC(N)=O)NC(=O)[C@H](CO)NC(=O)[C@H](CCC(N)=O)NC(=O)[C@H](Cc4ccccc4)NC(=O)[C@H](CO)NC(=O)[C@H](CC(C)C)NC1=O)C(=O)N[C@@H](C)C(=O)N[C@@H](CC(C)C)C(=O)N[C@@H](Cc1cnc[nH]1)C(=O)N3)NC(=O)[C@H](C(C)C)NC(=O)[C@H]([C@@H](C)O)NC(=O)[C@H]([C@@H](C)CC)NC(=O)[C@H](CCCCN)NC2=O [ATCDILSFQSQWVTPNHAGCALHCVIKGYKGGQCKITVCHCRR]
